This note sets out measurements from article PMC6501426 (Clinical Epigenetics, 2019).

The subject of assay [1] is RPMI1788 (normal B lymphocytes). Put plainly: Cell viability, trypan blue exclusion. The class given is cell-based. To be noted: Homo sapiens, RPMI-1788; 48 h of treatment; normal cells; read-out: IC50 ± SD, cell viability, RPMI1788. The method, then: U-937 (acute myeloid leukemia), RAJI (Burkitt’s lymphoma), PC-3 (prostate cancer), and MDA-MB-231 (breast cancer) cell lines were obtained from the Deutsche Sammlung für Mikroorganismen and Zellkulturen (DSZM, Braunschweig, Germany) and were cultured in RPMI 1640 (Lonza, Verviers, Belgium) complemented with 10% FBS (Lonza, Verviers, Belgium) and 1% antibiotic-antimycotic (Lonza). RPMI1788 (normal B lymphocytes) and KG-1 (acute myeloid leukemia) cell lines were obtained from the American Type Culture Collection (ATCC) and were maintained in RPMI 1640 complemented with 20% FBS and IMDM complemented with 10% FBS, respectively. Cell lines were treated with compounds at the indicated concentrations in the exponential growth phase.
Proliferation and viability of U-937, KG-1, RAJI, PC-3, MDA-MB-231, RPMI1788, PBMCs, and PHA_PBMCs were assessed by trypan blue exclusion assays at the indicated time points. Nuclear morphology changes associated with apoptosis and necrosis were evaluated by fluorescence microscopy after Hoechst and propidium iodide (PI) staining as previously described.
IC50 values of compounds against cellular viability were determined by using nonlinear regression fitting curves with GraphPad Prism 8 or CalcuSyn software The t test used for statistical analyses was performed with GraphPad Prism 8. […]

The test system of assay [2] is DNMT3A protein level in HCT116 cells. The assay is described as follows: Western blot of DNMT3A protein in HCT116. The class given is cell-based, human. To be noted: 24 h; MC3353 effect detectable at 0.1 μM. From the text: Cells were lysed in Laemmli buffer; subsequently, the proteins were resolved by sodium dodecyl sulfate-polyacrylamide gel electrophoresis and transferred to a 0.45-μm nitrocellulose membrane (Bio-Rad Laboratories, Hercules, CA). The following primary antibodies were used for immunoblotting: α-E-cadherin (BD Transduction Laboratories, Franklin Lakes, NJ), α-MMP2 (Abcam), α-DNMT3a (Santa Cruz Biotechnologies, Dallas, TX), and α-GAPDH (Millipore Corp., Bedford, MA), used as a loading control. The immune complexes were detected with horseradish peroxidase-conjugated species-specific secondary antiserum (Bio-Rad Laboratories, Milan, Italy) then by enhanced chemiluminescence reaction (Bio-Rad Laboratories, Milan, Italy). Densitometric analysis of protein expression was performed by using the Fiji ImageJ image processing package.
GAPDH was used as a loading control. Blots are representative of two independent experiments

Assay [3] concerns the target T1, AurA/Aur2 kinase (h) (Homo sapiens, UniProt O14965).
T1 construct: purchased Eurofins Cerep
Put plainly: Kinase panel (Cerep). The class given is biochemical. To be noted: read-out: % inhibition at 10 µM by MC3353, AurA/Aur2 kinase (h), ATP 10 μM. The method, then: (§1) The test compound, reference compound or water (control) were mixed with the enzyme (for the exact amount see table below) in the appropriate buffer. Thereafter, the reaction was initiated by adding the required amount of the appropriate substrate and of ATP, and the mixture is incubated at room temperature (variable reaction time, see table below). For control basal measurements, the enzyme was omitted from the reaction mixture. Following incubation, the reaction was stopped by adding 13 mM EDTA. After 5 min, the proper antibody labelled with europium chelate was added. After 60 more min, the fluorescence transfer was measured at λex=337 nm, λem=620 nm and λem=665 nm using a microplate reader (Envision, Perkin Elmer). The enzyme activity was determined by dividing the signal measured at 665 nm by that measured at 620 nm (ratio). The results are expressed as a percent inhibition of the control enzyme activity.

Assay [4] addresses T2, FGFR2 kinase (h) (Homo sapiens, UniProt P21802).
T2 construct: purchased Eurofins Cerep
The assay is described as follows: Kinase panel (Cerep). The class given is biochemical. The following applies: read-out: % inhibition at 10 µM by MC3353, FGFR2 kinase (h), ATP 10 μM. The procedure:
as §1

Assay [5] addresses T3, MNK2 (h) (Homo sapiens, UniProt Q9HBH9).
T3 construct: purchased Eurofins Cerep
Put plainly: Kinase panel (Cerep). The class given is biochemical. To be noted: read-out: % inhibition at 10 µM by MC3353, MNK2 (h), ATP 100 μM. The procedure: as §1

For assay [6], the target named is T4, PAK4 (h) (Homo sapiens, UniProt O96013).
T4 construct: purchased Eurofins Cerep
T4 sequence (O96013 whole entry): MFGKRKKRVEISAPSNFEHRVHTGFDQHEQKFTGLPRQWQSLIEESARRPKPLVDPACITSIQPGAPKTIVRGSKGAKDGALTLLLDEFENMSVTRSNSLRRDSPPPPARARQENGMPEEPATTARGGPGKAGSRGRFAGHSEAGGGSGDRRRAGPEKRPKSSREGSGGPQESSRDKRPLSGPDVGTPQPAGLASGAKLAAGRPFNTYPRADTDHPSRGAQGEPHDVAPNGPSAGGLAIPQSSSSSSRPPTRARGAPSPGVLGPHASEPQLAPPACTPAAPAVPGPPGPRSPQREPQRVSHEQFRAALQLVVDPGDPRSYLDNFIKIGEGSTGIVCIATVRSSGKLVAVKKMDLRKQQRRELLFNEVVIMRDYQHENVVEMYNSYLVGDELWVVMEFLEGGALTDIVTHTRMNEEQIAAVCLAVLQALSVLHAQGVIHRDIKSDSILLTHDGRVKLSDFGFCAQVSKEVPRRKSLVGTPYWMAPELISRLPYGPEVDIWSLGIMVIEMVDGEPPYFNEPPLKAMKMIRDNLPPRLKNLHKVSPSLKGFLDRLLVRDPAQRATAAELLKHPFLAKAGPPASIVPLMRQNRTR
The assay is described as follows: Kinase panel (Cerep). Format: biochemical. To be noted: read-out: % inhibition at 10 µM by MC3353, PAK4 (h), ATP 1 μM. The procedure: as §1

The target of assay [7] is T5, PKA (h) (Homo sapiens, UniProt P17612).
T5 construct: purchased Eurofins Cerep
The assay is described as follows: Kinase panel (Cerep). The class given is biochemical. To be noted: read-out: % inhibition at 10 µM by MC3353, PKA (h), ATP 1 μM. The method, then:
as §1

Assay [8] concerns the target T6, PKCbeta 2 (h) (Homo sapiens, UniProt P05771).
T6 construct: purchased Eurofins Cerep
Put plainly: Kinase panel (Cerep). To be noted: read-out: % inhibition at 10 µM by MC3353, PKCbeta 2 (h), ATP 30 μM. Format: biochemical. The procedure: as §1

Assay [9] deals with T7, SIK (h) (Homo sapiens, UniProt P57059).
T7 construct: purchased Eurofins Cerep
T7 sequence (P57059 whole entry): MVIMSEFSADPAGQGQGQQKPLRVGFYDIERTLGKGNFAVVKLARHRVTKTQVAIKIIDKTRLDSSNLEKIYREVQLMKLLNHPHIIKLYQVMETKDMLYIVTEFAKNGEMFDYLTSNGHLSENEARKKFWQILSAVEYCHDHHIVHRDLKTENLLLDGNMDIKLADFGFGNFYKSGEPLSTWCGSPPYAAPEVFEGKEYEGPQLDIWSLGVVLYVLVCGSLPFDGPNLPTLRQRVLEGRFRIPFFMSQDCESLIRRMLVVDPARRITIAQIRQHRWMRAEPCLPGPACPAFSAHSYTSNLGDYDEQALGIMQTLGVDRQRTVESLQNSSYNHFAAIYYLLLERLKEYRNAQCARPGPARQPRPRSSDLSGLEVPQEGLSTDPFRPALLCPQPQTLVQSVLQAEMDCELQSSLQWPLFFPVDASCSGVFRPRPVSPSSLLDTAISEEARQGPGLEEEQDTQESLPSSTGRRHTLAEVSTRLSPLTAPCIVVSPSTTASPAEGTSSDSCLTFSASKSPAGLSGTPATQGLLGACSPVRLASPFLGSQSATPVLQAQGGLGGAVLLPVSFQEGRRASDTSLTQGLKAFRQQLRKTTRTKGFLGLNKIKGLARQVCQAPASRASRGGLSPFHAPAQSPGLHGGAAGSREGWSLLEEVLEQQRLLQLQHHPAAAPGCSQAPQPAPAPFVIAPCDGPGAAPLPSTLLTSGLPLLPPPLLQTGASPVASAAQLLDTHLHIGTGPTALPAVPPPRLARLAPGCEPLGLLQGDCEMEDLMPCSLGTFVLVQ
The assay is described as follows: Kinase panel (Cerep). The class given is biochemical. To be noted: read-out: % inhibition at 10 µM by MC3353, SIK (h), ATP 30 μM. The method, then:
as §1

T2 sequence (P21802 22-821): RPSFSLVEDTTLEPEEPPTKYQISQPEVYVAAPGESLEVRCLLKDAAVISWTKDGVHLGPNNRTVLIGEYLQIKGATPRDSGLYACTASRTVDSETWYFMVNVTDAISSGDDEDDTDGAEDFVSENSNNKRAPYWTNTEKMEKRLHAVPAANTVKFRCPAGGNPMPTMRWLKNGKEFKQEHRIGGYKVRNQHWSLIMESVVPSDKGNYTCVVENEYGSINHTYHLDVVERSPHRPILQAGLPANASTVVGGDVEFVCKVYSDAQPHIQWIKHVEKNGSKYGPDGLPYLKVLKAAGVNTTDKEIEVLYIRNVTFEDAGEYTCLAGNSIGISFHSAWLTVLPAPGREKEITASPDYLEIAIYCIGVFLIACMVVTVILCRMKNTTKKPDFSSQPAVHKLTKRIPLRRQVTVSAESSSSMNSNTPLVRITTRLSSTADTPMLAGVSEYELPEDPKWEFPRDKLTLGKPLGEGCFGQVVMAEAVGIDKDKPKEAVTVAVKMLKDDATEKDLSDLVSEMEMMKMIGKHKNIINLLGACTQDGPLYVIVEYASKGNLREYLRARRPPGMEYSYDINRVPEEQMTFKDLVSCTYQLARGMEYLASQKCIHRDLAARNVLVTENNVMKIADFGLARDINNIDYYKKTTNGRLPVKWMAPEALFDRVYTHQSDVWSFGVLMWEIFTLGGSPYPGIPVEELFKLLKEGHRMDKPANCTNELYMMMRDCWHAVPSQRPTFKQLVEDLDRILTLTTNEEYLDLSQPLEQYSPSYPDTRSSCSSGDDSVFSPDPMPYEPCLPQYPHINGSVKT
T3 sequence (Q9HBH9 whole entry): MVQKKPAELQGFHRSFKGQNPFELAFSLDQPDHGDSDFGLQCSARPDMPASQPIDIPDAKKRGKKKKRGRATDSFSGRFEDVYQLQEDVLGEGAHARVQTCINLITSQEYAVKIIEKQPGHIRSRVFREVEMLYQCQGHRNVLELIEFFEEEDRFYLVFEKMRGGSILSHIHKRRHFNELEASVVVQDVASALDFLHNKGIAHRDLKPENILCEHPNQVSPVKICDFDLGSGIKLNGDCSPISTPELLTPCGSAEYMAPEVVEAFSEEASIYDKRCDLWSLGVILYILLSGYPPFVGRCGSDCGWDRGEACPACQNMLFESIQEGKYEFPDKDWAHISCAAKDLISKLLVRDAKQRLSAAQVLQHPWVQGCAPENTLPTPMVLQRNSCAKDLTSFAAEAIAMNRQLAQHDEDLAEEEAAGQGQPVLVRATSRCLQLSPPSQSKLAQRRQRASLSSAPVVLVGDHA
T6 sequence (P05771 1-673 isoform P05771-2): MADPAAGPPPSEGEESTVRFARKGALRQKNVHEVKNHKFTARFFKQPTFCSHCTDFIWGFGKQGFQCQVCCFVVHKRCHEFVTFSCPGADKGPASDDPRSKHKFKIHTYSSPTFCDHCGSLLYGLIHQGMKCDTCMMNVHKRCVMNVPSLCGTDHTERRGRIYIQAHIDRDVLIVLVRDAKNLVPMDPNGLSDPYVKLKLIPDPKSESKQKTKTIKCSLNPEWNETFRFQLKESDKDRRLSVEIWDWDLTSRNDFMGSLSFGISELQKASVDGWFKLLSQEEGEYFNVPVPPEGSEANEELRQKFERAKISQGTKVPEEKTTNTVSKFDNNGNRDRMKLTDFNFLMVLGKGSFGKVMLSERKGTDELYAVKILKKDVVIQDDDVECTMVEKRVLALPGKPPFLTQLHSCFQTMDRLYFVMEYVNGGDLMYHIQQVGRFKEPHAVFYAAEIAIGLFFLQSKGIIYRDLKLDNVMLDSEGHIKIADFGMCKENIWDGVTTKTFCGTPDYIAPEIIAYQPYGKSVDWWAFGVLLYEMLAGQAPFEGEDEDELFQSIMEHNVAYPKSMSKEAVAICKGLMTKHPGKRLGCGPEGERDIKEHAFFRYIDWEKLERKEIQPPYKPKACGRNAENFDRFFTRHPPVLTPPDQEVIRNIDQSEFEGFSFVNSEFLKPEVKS
T1 sequence (O14965 whole entry): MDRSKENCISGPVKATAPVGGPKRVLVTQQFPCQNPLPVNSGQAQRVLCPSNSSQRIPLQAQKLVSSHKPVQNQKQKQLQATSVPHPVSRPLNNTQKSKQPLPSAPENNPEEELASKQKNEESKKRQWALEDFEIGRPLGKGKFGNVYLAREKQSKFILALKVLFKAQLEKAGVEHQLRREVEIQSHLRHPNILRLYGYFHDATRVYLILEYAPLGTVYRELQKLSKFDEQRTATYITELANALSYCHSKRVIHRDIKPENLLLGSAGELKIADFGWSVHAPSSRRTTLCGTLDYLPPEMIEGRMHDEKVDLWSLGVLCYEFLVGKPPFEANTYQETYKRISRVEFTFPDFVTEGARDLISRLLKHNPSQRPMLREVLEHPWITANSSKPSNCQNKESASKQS

`O=C(Nc1ccc(NC(=O)c2ccc(Nc3ccnc4ccccc34)cc2)cc1)OCc1ccccc1` [MC3353, Benzyl (4-(4-(quinolin-4-ylamino)benzamido)phenyl)carbamate]: the IC50 in [1] is 2400 ± 200 nM. For the same compound, the “DNMT3A protein expression level (western blot), HCT116” value in [2] is recorded as “DNMT3A protein downregulation was observed”. The inhibition at 10 µM was 4% in [3]; 19% in assay [4]; 21% in [5]; -4% in assay [6]; 27% in assay [7]; 11% in assay [8]. Also, the inhibition at 10 µM in [9] turned out to be 33%.
